Measurements taken from paper PMC5107945, “Abscinazole-E3M, a practical inhibitor of abscisic acid 8′-hydroxylase for improving drought tolerance” (Scientific Reports, 2016).

Experiments:
rice seedling growth = assay: Rice seedling elongation assay; format: in vivo, Oryza sativa L. cv. Nipponbare; conditions: Fig. S5
Protocol: The effects of (−)-Abz-T compounds were also tested on the early growth of rice seedlings to investigate whether the plant growth-retardant effect derived from UNI declined. […] This was the same trend observed for (−)-Abz-E2B[26]. […] Thus, the growth-retardant effects of (−)-Abz-T compounds may arise from an increase in the endogenous ABA level due to the CYP707A inhibition, although we cannot exclude the possibility that Abz-T compounds may inhibit off-target enzymes other than CYP707A and CYP701A.
Figure 4 Effects of (−)-Abz-T compounds on rice seedling growth compared with the effects of UNI and (−)-Abz-E2B. Seedlings grown on test media containing indicated concentrations of azole inhibitors for 7 d. Scale bars represent 10 mm. Compound 6 is also referred to as Abz-E3M.
For the rice seedling elongation assay, seven seeds (Oryza sativa L. cv. Nipponbare) were sterilised with reagent-grade EtOH for 5 min and washed with running tap water. They were then soaked in distilled water and incubated under continuous illumination at 25 °C for 3 d to germinate. The germinated seeds were then soaked in 2 mL of a test medium in a glass tube and grown under continuous illumination at 25 °C. When the seedlings were 7 d old, the length of the second leaf sheath was measured. All of the assays were conducted at least three times.

[1] = system: ABA-responsive genes MAPKKK18, RD29A and RD29B; assay: qRT-PCR of ABA-responsive genes in Arabidopsis seedlings; format: in vivo, Arabidopsis (Columbia accession); conditions: 10-day-old seedlings, 6 h
Protocol: Figure 5 Effects of (−)-Abz-E3M on the expression levels of Arabidopsis ABA-responsive genes. Expression of MAPKKK18, RD29A and RD29B after treatment with (−)-Abz-E2B or (−)-Abz-E3M in the absence or presence of 0.25 μM ABA (n = 4, error bar represents s.d.).
Arabidopsis (Columbia accession) were grown for 10 d on agar plates containing 1/2 Murashige and Skoog (MS) and 0.5% sucrose at 22 °C under an 18/6-h light/dark cycle. Seedlings were incubated in the chemical solutions for 6 h. Total RNA from seedlings was isolated using the Plant RNA purification reagent (Thermo Fisher Scientific) according to the manufacturer’s instructions. cDNA was synthesised using the QuantiTec reverse transcription kit (Qiagen). Maize (cv. Gold rush, Sakata Seed Corporation) seedlings were grown in 100-mL pots containing 75 g of moist soil in a glass house. The root parts of the maize seedlings were washed with tap water and dipped in 100 μM (−)-Abz-E3M chemical solution containing 0.05% Tween-20 overnight. Total RNA from maize seedlings was isolated using an RNeasy mini kit (Qiagen) with the ‘on-column’ DNA digestion method. cDNA was synthesised using a High-Capacity cDNA Reverse Transcription Kit (Thermo Fisher Scientific). Real-time PCR using SYBR Premix Ex Taq™ II (Takara) was performed with Step One-Plus (Thermo Fisher Scientific). The primer sets are shown in Supplemental Table S1.

[2] = system: MAPKKK18 promoter GUS reporter; assay: ABA-responsive MAPKKK18::GUS reporter analysis; format: in vivo, Arabidopsis; conditions: co-treatment with ABA; 5 or 25 μM, 6 h; Fig. S6
Protocol: MAPKKK18::GUS reporter-containing transgenic Arabidopsis[32] were grown for 6 d on agar plates containing 1/2 MS and 0.5% sucrose. Seedlings were incubated in 1/2 MS solutions containing 0.5% sucrose with chemicals for 6 h. GUS activities were detected using a reaction buffer containing 50 mM sodium phosphate buffer, 2.5 mM potassium ferrocyanide, 2.5 mM potassium ferricyanide and 1 mM X-gluc. The GUS enzyme reaction was performed at 30 °C for ~12 h. The reaction was stopped by adding 70% EtOH. Tissue-specific GUS staining was observed by microscope after bleaching the chlorophyll pigment.
Supplementary Figure 6. (−)-Abz-E3M enhanced the ABA-inducible MAPKKK18 expression level. Six-day-old seedlings of MAPKKK18::GUS reporter-containing transgenic plants were incubated in solutions containing either 5 or 25 µM of (−)-Abz-E3M

[3] = system: Arabidopsis drought tolerance; assay: Arabidopsis drought tolerance analysis; format: in vivo; conditions: 50 μM spray, water withheld 12 days, then rehydrated
Protocol: The effects of (-)-Abz-[…] were also determined relative to stomatal apertures. Arabidopsis grown in soil pots underwent moderate drought stress under the optimal growth conditions of 22 °C and 60% relative humidity. Under these growth conditions, the leaf surface temperature of the mock-treated controls was 19.5 °C, which was lower than the surrounding atmospheric temperature because of transpirational water loss (Fig. 6a,b)[30]. […] Finally, we examined the effects of (-)-Abz-[…] on drought tolerance under more practical conditions. Three-week-old Arabidopsis were sprayed with an aqueous solution containing 50 μM (-)-Abz-[…]. Water was not supplied for 12 days, and then the plants were rehydrated. […] We also tested the effects of (-)-Abz-[…] on a monocot crop, maize, to evaluate whether (-)-Abz-[…] affected stomatal movement and enhanced ABA response across plant species. […] Thus, the effects of (-)-Abz-[…] were not restricted to the model plant Arabidopsis. Figure 6 Effects of (-)-Abz-[…] on Arabidopsis drought tolerance. (a,b) Three-week-old plants were treated with 50 μM of (-)-Abz-[…] and incubated overnight at 22 °C with 60% relative humidity. Thermal images of plants were obtained using a thermal imaging camera ([…], Nippon Avionics Co., Ltd.), and the average temperatures on leaf surfaces were determined with NS9200 software (n = 5, error bars represent s.d.). […]

ABA catabolism = conditions: in vivo
Protocol: For ABA measurements from Arabidopsis seedlings, samples (1–20 mg dry weight) were ground with beads in 2-mL tubes and homogenised in 1 mL 80% (v/v) MeCN containing 1% AcOH (v/v) with d6-ABA. After extracting for 16 h at 4 °C, samples were centrifuged at 4 °C for 10 min at 3,000× g, and supernatants were collected. Samples were re-extracted twice with 1 mL 80% MeCN at 4 °C for 30 min, and the supernatants were collected after centrifugation. MeCN was removed with nitrogen gas, and the acidified water extracts were loaded into 1cc Oasis HLB cartridges. After washing with water containing 1% AcOH, plant ABA was eluted with 80% MeCN containing 1% AcOH. MeCN was removed, and samples were loaded into 1cc Bond Elute DEA cartridges (Agilent). After washing with MeOH, the ABA was eluted using MeOH containing 1% AcOH. The fractions containing ABA were dried, dissolved in water containing 1% AcOH, and analysed by LC–MS/MS as described previously[35]. The LC conditions for Arabidopsis samples were as follows: solvent A, water containing 0.01% (v/v) acetic acid; solvent B, MeCN containing 0.05% (v/v) acetic acid; and linear gradient, 3 to 40% solvent B over 9 min. Experiments were performed in triplicate, and the results were averaged.
25 µ M (−)-Abz-E3M (n = 3,error bar represents s.d.).Eleven-day-old seedlings of wild-type (Col accession) […]

abscinazole-E3M [(−)-6]
Effect on rice seedling growth, co-treatment with ABA (rice seedling growth; 10 μM compound + 1 μM ABA): inhibited rice seedling growth | Effect on rice seedling growth, compound alone (rice seedling growth; 10 μM, no ABA): did not | Expression of ABA-responsive genes MAPKKK18, RD29A and RD29B ([1]; absence of exogenous ABA): did not induce the expression | Expression of ABA-responsive genes MAPKKK18, RD29A and RD29B ([1]; co-treatment with 0.25 μM ABA): enhanced the expression levels of ABA-responsive genes | ABA-inducible GUS staining (MAPKKK18::GUS) [2]: enhanced the ABA-inducible GUS staining | Drought tolerance and survival [3]: induced significant drought tolerance and increased the survival rate | ABA catabolism / ABA accumulation in plants (ABA catabolism): inhibited ABA catabolism and increased ABA accumulation in plants
